For orientation: MIC80 means the lowest concentration that inhibits either 80% of growth or 80% of the strains tested, depending on the study.

The structures appear in SMILES notation.

Experimental findings from ChEMBL document CHEMBL5528067, “From Synergy to Monotherapy: Discovery of Novel 2,4,6-Trisubstituted Triazine Hydrazone Derivatives with Potent Antifungal Potency In Vitro and In Vivo” (J Med Chem, 2024) are described below.

Holding throughout (assay type): functional
Experiment [1] concerns Candida albicans. As to the kind of experiment: Antifungal activity against FCZ-resistant Candida albicans strain 901 assessed as growth inhibition in presence of fluconazole measured after 48 hrs incubation by CLSI based micro-dilution broth method.
In experiment [2] the test system is Candida albicans. Briefly: Antifungal activity against FCZ-resistant Candida albicans strain 904 assessed as growth inhibition measured after 48 hrs incubation by CLSI based micro-dilution broth method. Background: Broth dilution looks for growth in wells or tubes with falling amounts of substance.
The test system of experiment [3] is Candida albicans. Briefly: Synergistic antifungal activity against FCZ-resistant Candida albicans strain 901 assessed as fractional inhibitory concentration index measured after 48 hrs in presence of FCZ by CLSI based micro-dilution broth method.
Experiment [4] has as its system Candida albicans. As to the kind of experiment: Synergistic antifungal activity against FCZ-resistant Candida albicans strain 904 assessed as fractional inhibitory concentration index measured after 48 hrs in presence of FCZ by CLSI based micro-dilution broth method.
Experiment [5] deals with Candida albicans. Briefly: Antifungal activity against FCZ-resistant Candida albicans strain 901 assessed as growth inhibition measured after 48 hrs incubation by CLSI based micro-dilution broth method.
Experiment [6] has as its system Candida albicans. As to the kind of experiment: Antifungal activity against FCZ-resistant Candida albicans strain 904 assessed as growth inhibition in presence of fluconazole measured after 48 hrs incubation by CLSI based micro-dilution broth method.

`Fc1ccc(CNc2nc(NCc3ccc(F)cc3)nc(N/N=C/c3ccc(Cl)cc3)n2)cc1`: the MIC80 in the experiment on Candida albicans [1], in the experiment on Candida albicans [2], with Candida albicans [5] and with Candida albicans [6] was greater than 64 µg/mL in each case. Also, the “fractional inhibitory concentration index (FICI)” value with Candida albicans [3] and in the experiment with Candida albicans [4] was 1.13 each time.

`Fc1ccc(CNc2nc(NCc3ccc(F)cc3)nc(N/N=C/c3ccccc3Cl)n2)cc1`: the MIC80 with Candida albicans [1], in the experiment on Candida albicans [2], in the experiment on Candida albicans [5] and in the experiment on Candida albicans [6] was greater than 64 µg/mL in each case. Besides, the “fractional inhibitory concentration index (FICI)” value in the experiment on Candida albicans [3] and with Candida albicans [4] was 1.13 throughout.

As for `Cc1cccc(/C=N/Nc2nc(NCc3ccc(F)cc3)nc(NCc3ccc(F)cc3)n2)c1`, the MIC80 with Candida albicans [1], with Candida albicans [2], in the experiment with Candida albicans [5] and in the experiment on Candida albicans [6] was greater than 64 µg/mL each time. Also, the “fractional inhibitory concentration index (FICI)” value in the experiment with Candida albicans [3] and with Candida albicans [4] was 1.13 each time.

With `O=[N+]([O-])c1ccc(O)cc1/C=N/Nc1nc(NCc2ccc(F)cc2)nc(NCc2ccc(F)cc2)n1`, the MIC80 is 8 µg/mL in the experiment on Candida albicans [1], greater than 64 µg/mL in the experiment with Candida albicans [2], greater than 64 µg/mL in the experiment with Candida albicans [5] and 8 µg/mL in the experiment with Candida albicans [6]. In addition, the “fractional inhibitory concentration index (FICI)” value in the experiment on Candida albicans [3] and in the experiment with Candida albicans [4] was 0.25 each time.

For `Oc1ccc(/C=N/Nc2nc(NCc3ccc(F)cc3)nc(NCc3ccc(F)cc3)n2)cc1`, the MIC80 with Candida albicans [1] was 16 µg/mL; with Candida albicans [2], greater than 64 µg/mL; with Candida albicans [5], greater than 64 µg/mL; in the experiment on Candida albicans [6], 16 µg/mL. Further, the “fractional inhibitory concentration index (FICI)” value in the experiment with Candida albicans [3] and in the experiment with Candida albicans [4] was 0.38 each time.

On to `Fc1ccc(CNc2nc(NCc3ccc(F)cc3)nc(N/N=C/c3cccc(F)c3)n2)cc1`, for which the MIC80 with Candida albicans [1], with Candida albicans [2], with Candida albicans [5] and in the experiment with Candida albicans [6] was greater than 64 µg/mL throughout. Besides, the “fractional inhibitory concentration index (FICI)” value in the experiment on Candida albicans [3] and in the experiment with Candida albicans [4] was 1.13 throughout.

Turning to `O=[N+]([O-])c1ccc(/C=N/Nc2nc(NCc3ccc(F)cc3)nc(NCc3ccc(F)cc3)n2)cc1`, the MIC80 in the experiment with Candida albicans [1], in the experiment on Candida albicans [2], in the experiment with Candida albicans [5] and in the experiment on Candida albicans [6] was greater than 64 µg/mL throughout. For the same compound, the “fractional inhibitory concentration index (FICI)” value in the experiment on Candida albicans [3] and with Candida albicans [4] was 1.13 in each case.

As for `N#Cc1ccc(/C=N/Nc2nc(NCc3ccc(F)cc3)nc(NCc3ccc(F)cc3)n2)cc1`, the MIC80 with Candida albicans [1], in the experiment on Candida albicans [2], with Candida albicans [5] and with Candida albicans [6] was greater than 64 µg/mL in each case. Also, the “fractional inhibitory concentration index (FICI)” value in the experiment with Candida albicans [3] and in the experiment on Candida albicans [4] was 1.13 throughout.

Take `Fc1ccc(CNc2nc(NCc3ccc(F)cc3)nc(N/N=C/c3ccccc3F)n2)cc1`: the MIC80 in the experiment on Candida albicans [1], in the experiment with Candida albicans [2], with Candida albicans [5] and in the experiment on Candida albicans [6] was greater than 64 µg/mL each time. The “fractional inhibitory concentration index (FICI)” value with Candida albicans [3] and in the experiment with Candida albicans [4] was 1.13 each time.

Take `COc1ccc(/C=N/Nc2nc(NCc3ccc(F)cc3)nc(NCc3ccc(F)cc3)n2)cc1`: the MIC80 in the experiment with Candida albicans [1], in the experiment with Candida albicans [2], in the experiment with Candida albicans [5] and in the experiment with Candida albicans [6] was greater than 64 µg/mL throughout. The “fractional inhibitory concentration index (FICI)” value with Candida albicans [3] and in the experiment on Candida albicans [4] was 1.13 throughout.

For `O=[N+]([O-])c1c(O)cccc1/C=N/Nc1nc(NCc2ccc(F)cc2)nc(NCc2ccc(F)cc2)n1`, the MIC80 with Candida albicans [1], in the experiment with Candida albicans [2], with Candida albicans [5] and with Candida albicans [6] was greater than 64 µg/mL throughout. Moreover, the “fractional inhibitory concentration index (FICI)” value in the experiment on Candida albicans [3] and in the experiment on Candida albicans [4] was 1.13 in each case.

`O=[N+]([O-])c1cccc(/C=N/Nc2nc(NCc3ccc(F)cc3)nc(NCc3ccc(F)cc3)n2)c1`: the MIC80 in the experiment on Candida albicans [1], in the experiment on Candida albicans [2], in the experiment on Candida albicans [5] and with Candida albicans [6] was greater than 64 µg/mL in each case. Besides, the “fractional inhibitory concentration index (FICI)” value with Candida albicans [3] and in the experiment on Candida albicans [4] was 1.13 each time.

Regarding `O=[N+]([O-])c1cc(O)cc(/C=N/Nc2nc(NCc3ccc(F)cc3)nc(NCc3ccc(F)cc3)n2)c1`, the MIC80 was 8 µg/mL in the experiment with Candida albicans [1], greater than 64 µg/mL in the experiment on Candida albicans [2], greater than 64 µg/mL in the experiment on Candida albicans [5] and 4 µg/mL with Candida albicans [6]. For the same compound, the entries for the “fractional inhibitory concentration index (FICI)” value in the experiment on Candida albicans [3] and with Candida albicans [4] were 0.25 and 0.19, respectively.

In the case of `Fc1ccc(CNc2nc(NCc3ccc(F)cc3)nc(N/N=C/c3ccc(OC(F)(F)F)cc3)n2)cc1`, the MIC80 with Candida albicans [1], in the experiment with Candida albicans [2], in the experiment with Candida albicans [5] and in the experiment with Candida albicans [6] was greater than 64 µg/mL each time. Also, the “fractional inhibitory concentration index (FICI)” value with Candida albicans [3] and in the experiment with Candida albicans [4] was 1.13 in each case.

For `O=[N+]([O-])c1ccc(/C=N/Nc2nc(NCc3ccc(F)cc3)nc(NCc3ccc(F)cc3)n2)cc1O`, the MIC80 in the experiment on Candida albicans [1] was 4 µg/mL; in the experiment on Candida albicans [2] it was greater than 64 µg/mL; in the experiment with Candida albicans [5], greater than 64 µg/mL; with Candida albicans [6] it was 4 µg/mL. In addition, the “fractional inhibitory concentration index (FICI)” value in the experiment with Candida albicans [3] and with Candida albicans [4] was 0.19 throughout.

Take `Fc1ccc(CNc2nc(NCc3ccc(F)cc3)nc(N/N=C/c3ccc(C(F)(F)F)cc3)n2)cc1`: the MIC80 in the experiment on Candida albicans [1], in the experiment with Candida albicans [2], in the experiment with Candida albicans [5] and in the experiment with Candida albicans [6] was greater than 64 µg/mL in each case. The “fractional inhibitory concentration index (FICI)” value with Candida albicans [3] and with Candida albicans [4] was 1.13 in each case.

`Cc1ccccc1/C=N/Nc1nc(NCc2ccc(F)cc2)nc(NCc2ccc(F)cc2)n1`: the MIC80 in the experiment with Candida albicans [1], with Candida albicans [2], in the experiment on Candida albicans [5] and in the experiment with Candida albicans [6] was greater than 64 µg/mL in each case. Besides, the “fractional inhibitory concentration index (FICI)” value in the experiment on Candida albicans [3] and in the experiment on Candida albicans [4] was 1.13 each time.

As to `O=[N+]([O-])c1cc(/C=N/Nc2nc(NCc3ccc(F)cc3)nc(NCc3ccc(F)cc3)n2)ccc1O`, the MIC80 with Candida albicans [1] is 8 µg/mL; in the experiment with Candida albicans [2], greater than 64 µg/mL; in the experiment on Candida albicans [5], greater than 64 µg/mL; in the experiment on Candida albicans [6], 4 µg/mL. The “fractional inhibitory concentration index (FICI)” value is on record as 0.25 in the experiment on Candida albicans [3] and 0.19 in the experiment on Candida albicans [4].

Turning to `Oc1cccc(/C=N/Nc2nc(NCc3ccc(F)cc3)nc(NCc3ccc(F)cc3)n2)c1`, the MIC80 in the experiment with Candida albicans [1] was 8 µg/mL; in the experiment with Candida albicans [2], greater than 64 µg/mL; in the experiment on Candida albicans [5] it was greater than 64 µg/mL; in the experiment with Candida albicans [6], 8 µg/mL. The “fractional inhibitory concentration index (FICI)” value in the experiment on Candida albicans [3] and in the experiment with Candida albicans [4] was 0.25 in each case.

For `Fc1ccc(/C=N/Nc2nc(NCc3ccc(F)cc3)nc(NCc3ccc(F)cc3)n2)cc1`, the MIC80 in the experiment with Candida albicans [1], in the experiment on Candida albicans [2], in the experiment on Candida albicans [5] and in the experiment on Candida albicans [6] was greater than 64 µg/mL in each case. Moreover, the “fractional inhibitory concentration index (FICI)” value in the experiment with Candida albicans [3] and in the experiment with Candida albicans [4] was 1.13 throughout.
